The results in this text go back to patent US9187472B2 (AbbVie Inc., priority 2012, dated 2015).

Assay [1] has as its target NAMPT (human, recombinant, C-terminally His-tagged) (Homo sapiens, UniProt P43490). Put plainly: Time-Resolved Fluorescence Resonance Energy Transfer (TR-FRET) Binding Assay of NAMPT. As to conditions: without substrates; 6.8 nM NAMPT, 200 nM probe, 3 hours equilibration. The procedure, abridged: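 Read-out is the time-resolved FRET ratio Em520/Em495 (excitation 337 nm) between a terbium anti-His antibody (1 nM) on the enzyme and an Oregon Green 488-labelled nicotinamide-competitive inhibitor probe (200 nM). Enzyme was 6.8 nM, DMSO 2%, pH 7.5 HEPES buffer; 3 h room-temperature equilibration preceded reading.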
Background: Time-resolved FRET reads energy transfer from a long-lived donor to a nearby acceptor.

The target of the next assay is NAMPT (Homo sapiens, UniProt P43490). As to the kind of experiment: TR-FRET Binding Assay of NAMPT with PRPP. The following applies: with 200 μM PRPP and 2.5 mM ATP; 2 nM NAMPT, 2 nM probe, 16 hours equilibration. Put shortly: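 NAMPT 2 nM + probe 2 nM + Tb-anti-His Ab 1 nM; PRPP 200 μM, ATP 2.5 mM, DMSO 2%; 16 h equilibration before TR-FRET read.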
Sequence of NAMPT (P43490 whole entry): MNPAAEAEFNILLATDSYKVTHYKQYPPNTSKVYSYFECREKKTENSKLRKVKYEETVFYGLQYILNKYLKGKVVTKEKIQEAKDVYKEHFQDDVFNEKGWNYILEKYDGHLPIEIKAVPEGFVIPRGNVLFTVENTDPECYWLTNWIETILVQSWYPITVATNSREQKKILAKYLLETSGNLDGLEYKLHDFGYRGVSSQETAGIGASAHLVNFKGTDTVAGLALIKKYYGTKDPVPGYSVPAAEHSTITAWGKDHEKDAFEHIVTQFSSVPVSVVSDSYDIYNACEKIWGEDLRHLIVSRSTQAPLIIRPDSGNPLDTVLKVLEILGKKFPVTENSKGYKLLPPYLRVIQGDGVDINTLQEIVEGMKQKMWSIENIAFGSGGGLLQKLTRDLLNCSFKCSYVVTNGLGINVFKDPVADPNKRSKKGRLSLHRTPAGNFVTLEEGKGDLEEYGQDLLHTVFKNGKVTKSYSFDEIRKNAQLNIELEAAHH
The subject of a further assay is PC3 cells. As to the kind of experiment: NAMPT Cell Proliferation Assay. Format: cell-based. The following applies: Homo sapiens, PC-3, 120 h, 5 days incubation, cell viability by Cell Titer Glo. The procedure, abridged: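 Following overnight attachment in RPMI with 10% heat-inactivated FBS, PC3 cells at 500 per well receive compounds spanning 10 μM down to 1×10^−5 μM. Growth is assessed by luminescent viability read after 5 days.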
In general terms: ATP-based viability assays read luminescence as a measure of living cells.

Sequence of NAMPT (human, recombinant, C-terminally His-tagged) (P43490 whole entry): as above

Take `CC(C)OCC(=O)N1CCC(c2ccc(C(=O)NCc3ccn4ccnc4c3)cc2)CC1` [Example 237, N-(imidazo[1,2-a]pyridin-7-ylmethyl)-4-{1-[(propan-2-yloxy)acetyl]piperidin-4-yl}benzamide]: the IC50 in assay [1] is 451 nM; at NAMPT, 0.285 nM; with PC3 cells it was 37.2 nM.
As to `CC[C@H](C)C(=O)N1CCC(c2ccc(C(=O)NCc3ccn4ccnc4c3)cc2)CC1` [Example 238, N-(imidazo[1,2-a]pyridin-7-ylmethyl)-4-{1-[(2S)-2-methylbutanoyl]piperidin-4-yl}benzamide], the IC50 in assay [1] was 123 nM; on NAMPT, 0.187 nM; with PC3 cells, 2.57 nM.
In the case of `CC(C)C(=O)N1CCC(c2ccc(C(=O)NCc3ccn4ccnc4c3)cc2)CC1` [Example 239, N-(imidazo[1,2-a]pyridin-7-ylmethyl)-4-[1-(2-methylpropanoyl)piperidin-4-yl]benzamide], the IC50 was determined as 308 nM in assay [1], 0.771 nM on NAMPT and 17.7 nM in the assay with PC3 cells.
As for `COCCC(=O)N(Cc1ccc(C#N)cc1)c1ccc(C(=O)NCc2ccc3nccn3c2)cc1` [Example 240, 4-[(4-cyanobenzyl)(3-methoxypropanoyl)amino]-N-(imidazo[1,2-a]pyridin-6-ylmethyl)benzamide], the IC50 in assay [1] amounted to 7350 nM; on NAMPT it was 8.75 nM; in the assay with PC3 cells, 651 nM.
In the case of `CC(=O)N1CC=C(c2ccc(C(=O)NCc3ccn4ccnc4c3)s2)CC1` [Example 241, 5-(1-acetyl-1,2,3,6-tetrahydropyridin-4-yl)-N-(imidazo[1,2-a]pyridin-7-ylmethyl)thiophene-2-carboxamide], the IC50 in assay [1] was 67.4 nM; at NAMPT it was 0.169 nM; in the assay with PC3 cells it was 8.48 nM.
On to `CS(=O)(=O)N1CC=C(c2ccc(C(=O)NCc3ccn4ccnc4c3)s2)CC1` [Example 242, N-(imidazo[1,2-a]pyridin-7-ylmethyl)-5-[1-(methylsulfonyl)-1,2,3,6-tetrahydropyridin-4-yl]thiophene-2-carboxamide], for which the IC50 in assay [1] is 57.1 nM; at NAMPT, 0.169 nM; in the assay with PC3 cells, 7.56 nM.
Take `O=C(NCc1ccn2ccnc2c1)Nc1ccc(C2CCN(C(=O)C3CCS(=O)(=O)CC3)CC2)cc1` [Example 243, 1-(4-{1-[(1,1-dioxidotetrahydro-2H-thiopyran-4-yl)carbonyl]piperidin-4-yl}phenyl)-3-(imidazo[1,2-a]pyridin-7-ylmethyl)urea]: the values for the IC50 (in assay [1]; on NAMPT; in the assay on PC3 cells) were 169 nM, 0.169 nM and 28 nM, respectively.
For `O=C(NCc1ccn2ccnc2c1)c1cnc(N2C(=O)CC[C@H]2CO)s1` [Example 244, 2-[(2S)-2-(hydroxymethyl)-5-oxopyrrolidin-1-yl]-N-(imidazo[1,2-a]pyridin-7-ylmethyl)-1,3-thiazole-5-carboxamide], the values for the half-inhibitory concentration (IC50) (in assay [1]; at NAMPT; in the assay with PC3 cells) were above 10000 nM, 1.69 nM and 7040 nM, respectively.
For `C[C@@H]1COC(=O)N1c1ncc(C(=O)NCc2ccn3ccnc3c2)s1` [Example 245, N-(imidazo[1,2-a]pyridin-7-ylmethyl)-2-[(4R)-4-methyl-2-oxo-1,3-oxazolidin-3-yl]-1,3-thiazole-5-carboxamide], the IC50 amounted to 2890 nM in assay [1], 0.502 nM at NAMPT and 5500 nM in the assay with PC3 cells.
In the case of `O=C(NCc1ccn2ccnc2c1)c1ccc(C2=CCN(S(=O)(=O)C3CC3)CC2)s1` [Example 246, 5-[1-(cyclopropylsulfonyl)-1,2,3,6-tetrahydropyridin-4-yl]-N-(imidazo[1,2-a]pyridin-7-ylmethyl)thiophene-2-carboxamide], the IC50 in assay [1] was 73.2 nM; at NAMPT it was 0.22 nM; in the assay on PC3 cells, 2.43 nM.
In the same order, the values of `O=C(NCc1ccn2ccnc2c1)c1ccc(-c2cnn(CC3CCCCO3)c2)s1` (stereo not drawn) [Example 247, N-(imidazo[1,2-a]pyridin-7-ylmethyl)-5-[1-(tetrahydro-2H-pyran-2-ylmethyl)-1H-pyrazol-4-yl]thiophene-2-carboxamide] are 62.7 nM, 0.275 nM and 1.34 nM.
In the case of `O=C(NCc1ccn2ccnc2c1)c1ccc(-c2cnn(CC3CCCO3)c2)s1` (stereo not drawn) [Example 248, N-(imidazo[1,2-a]pyridin-7-ylmethyl)-5-[1-(tetrahydrofuran-2-ylmethyl)-1H-pyrazol-4-yl]thiophene-2-carboxamide], the IC50 in assay [1] turned out to be 65.8 nM; on NAMPT, 0.169 nM; in the assay on PC3 cells, 2.42 nM.
For `CC(C)OCC1CN(c2ncc(C(=O)NCc3ccn4ccnc4c3)s2)C(=O)O1` (stereo not drawn) [Example 249, N-(imidazo[1,2-a]pyridin-7-ylmethyl)-2-{2-oxo-5-[(propan-2-yloxy)methyl]-1,3-oxazolidin-3-yl}-1,3-thiazole-5-carboxamide], the figures for the IC50 (in assay [1]; on NAMPT; in the assay with PC3 cells) were 817 nM, 0.72 nM and 66.5 nM, respectively.
In the case of `CC(C)[C@@H]1COC(=O)N1c1ccc(C(=O)NCc2ccn3ccnc3c2)s1` [Example 250, N-(imidazo[1,2-a]pyridin-7-ylmethyl)-5-[(4R)-2-oxo-4-(propan-2-yl)-1,3-oxazolidin-3-yl]thiophene-2-carboxamide], the figures for the IC50 (in assay [1]; at NAMPT; in the assay on PC3 cells) were 20.5 nM, 0.23 nM and 0.675 nM, respectively.
Regarding `O=C(NCc1ccn2ccnc2c1)c1cnc(N2CC(CO)OC2=O)s1` (stereo not drawn) [Example 251, 2-[5-(hydroxymethyl)-2-oxo-1,3-oxazolidin-3-yl]-N-(imidazo[1,2-a]pyridin-7-ylmethyl)-1,3-thiazole-5-carboxamide], the half-inhibitory concentration (IC50) in assay [1] is 2200 nM; at NAMPT, 0.63 nM; with PC3 cells, 1840 nM.
Take `O=C(NCc1ccn2ccnc2c1)c1ccc(-c2cnn(CC3CCOC3)c2)s1` (stereo not drawn) [Example 252, N-(imidazo[1,2-a]pyridin-7-ylmethyl)-5-[1-(tetrahydrofuran-3-ylmethyl)-1H-pyrazol-4-yl]thiophene-2-carboxamide]: the IC50 in assay [1] amounted to 37.4 nM; at NAMPT, 0.274 nM; in the assay on PC3 cells, 1.91 nM.
On to `O=C(NCc1ccn2ccnc2c1)c1ccc(-c2cnn(CC3CCCOC3)c2)s1` (stereo not drawn) [Example 253, N-(imidazo[1,2-a]pyridin-7-ylmethyl)-5-[1-(tetrahydro-2H-pyran-3-ylmethyl)-1H-pyrazol-4-yl]thiophene-2-carboxamide], for which the values for the IC50 (in assay [1]; on NAMPT; in the assay with PC3 cells) were 14.4 nM, 0.229 nM and 0.702 nM, respectively.
Consider `CC1(Cn2cc(-c3ccc(C(=O)NCc4ccn5ccnc5c4)s3)cn2)COC1` [Example 254, N-(imidazo[1,2-a]pyridin-7-ylmethyl)-5-{1-[(3-methyloxetan-3-yl)methyl]-1H-pyrazol-4-yl}thiophene-2-carboxamide], for which the IC50 in assay [1] was 31.3 nM; on NAMPT, 0.306 nM; with PC3 cells it was 0.938 nM.
The matching figures for `CC(C)OC[C@@H]1CN(c2ncc(C(=O)NCc3ccn4ccnc4c3)s2)C(=O)O1` [Example 255, N-(imidazo[1,2-a]pyridin-7-ylmethyl)-2-{(5S)-2-oxo-5-[(propan-2-yloxy)methyl]-1,3-oxazolidin-3-yl}-1,3-thiazole-5-carboxamide]: 8190 nM, 2.22 nM and 4290 nM.
With `CC(C)OC[C@H]1CN(c2ncc(C(=O)NCc3ccn4ccnc4c3)s2)C(=O)O1` [Example 256, N-(imidazo[1,2-a]pyridin-7-ylmethyl)-2-{(5R)-2-oxo-5-[(propan-2-yloxy)methyl]-1,3-oxazolidin-3-yl}-1,3-thiazole-5-carboxamide], the results for the IC50 (in assay [1]; on NAMPT; in the assay with PC3 cells) were 126 nM, 0.266 nM and 9.84 nM, respectively.
On to `COCC(=O)N1CCC(c2ccc(C(=O)NCc3ccn4ccnc4c3)s2)CC1` [Example 257, N-(imidazo[1,2-a]pyridin-7-ylmethyl)-5-[1-(methoxyacetyl)piperidin-4-yl]thiophene-2-carboxamide], for which the IC50 in assay [1] stood at 101 nM; at NAMPT it was 0.344 nM; with PC3 cells it was 15.2 nM.
Take `CC(=O)N1CCC(c2ccc(C(=O)NCc3ccn4ccnc4c3)s2)CC1` [Example 258, 5-(1-acetylpiperidin-4-yl)-N-(imidazo[1,2-a]pyridin-7-ylmethyl)thiophene-2-carboxamide]: the IC50 in assay [1] amounted to 113 nM; on NAMPT, 0.558 nM; with PC3 cells it was 32.5 nM.
In the case of `CC(C)C(=O)N1CCC(c2ccc(C(=O)NCc3ccn4ccnc4c3)s2)CC1` [Example 259, N-(imidazo[1,2-a]pyridin-7-ylmethyl)-5-[1-(2-methylpropanoyl)piperidin-4-yl]thiophene-2-carboxamide], the IC50 is 26.6 nM in assay [1], 0.169 nM at NAMPT and 2.54 nM with PC3 cells.
The matching figures for `O=C(NCc1ccn2ccnc2c1)c1ccc(C2CCN(C(=O)C3CC3)CC2)s1` [Example 260, 5-[1-(cyclopropylcarbonyl)piperidin-4-yl]-N-(imidazo[1,2-a]pyridin-7-ylmethyl)thiophene-2-carboxamide]: 46.5 nM, 0.351 nM and 8.06 nM.

What is called IC50 is the point on the concentration scale where inhibition reaches its midpoint.
